The source made the active and inactive calls.
Key:
Prothrombin = Prothrombin (Homo sapiens, UniProt P00734); test: Thrombin 1536 HTS Dose Response Confirmation. [Related pubchem assays: 1046 (Thrombin 1536 HTS; hits were confirmed in this assay)]; type: functional
Paired box protein Pax-8 = Paired box protein Pax-8 (Homo sapiens, UniProt Q06710); test: PAX8 transcriptional activity inhibition in RMG-I – RMG-I cells, luciferase, cherry-pick, dose response (AID 687027); type: functional, cell-based;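 note: luciferase reporter driven by Pax8 target thyroperoxidase promoter measured by SteadyGlo luminescence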
Chain of Paired box protein Pax-8 (Q06710 whole entry): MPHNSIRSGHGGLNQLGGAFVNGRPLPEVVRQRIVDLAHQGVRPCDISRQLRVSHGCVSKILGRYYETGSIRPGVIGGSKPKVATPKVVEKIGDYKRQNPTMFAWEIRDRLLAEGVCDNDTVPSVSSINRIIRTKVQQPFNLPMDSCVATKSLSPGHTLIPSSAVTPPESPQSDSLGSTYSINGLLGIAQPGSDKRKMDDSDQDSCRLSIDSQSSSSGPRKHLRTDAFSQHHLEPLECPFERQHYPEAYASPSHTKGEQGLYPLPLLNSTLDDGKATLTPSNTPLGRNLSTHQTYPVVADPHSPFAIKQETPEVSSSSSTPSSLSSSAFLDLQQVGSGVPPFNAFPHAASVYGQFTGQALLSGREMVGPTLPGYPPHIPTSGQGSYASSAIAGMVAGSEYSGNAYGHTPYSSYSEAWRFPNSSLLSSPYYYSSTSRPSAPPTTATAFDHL

[1] = OVCAR8 cell viability loss – plate reader, dry powder samples, PAX8 project, dose response (AID 743197); type: functional, cell-based; settings: OVCAR-8
[2] = biological target: T1, Ubiquitin-conjugating enzyme E2 N (Homo sapiens, UniProt P61088); type: functional;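 note: Dose-response confirmation in a TR-FRET assay detecting UBC13-driven polyubiquitin chain formation, inhibition measured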
T1 sequence (P61088 whole entry): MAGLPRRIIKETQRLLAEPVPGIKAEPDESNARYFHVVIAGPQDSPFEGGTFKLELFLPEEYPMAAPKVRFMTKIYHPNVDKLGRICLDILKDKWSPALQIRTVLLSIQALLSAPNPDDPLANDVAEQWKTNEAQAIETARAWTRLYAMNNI

[3] = biological target: T2, DNA repair protein RAD52 homolog (Homo sapiens, UniProt P43351); type: functional, biochemical
T2 sequence (P43351 whole entry): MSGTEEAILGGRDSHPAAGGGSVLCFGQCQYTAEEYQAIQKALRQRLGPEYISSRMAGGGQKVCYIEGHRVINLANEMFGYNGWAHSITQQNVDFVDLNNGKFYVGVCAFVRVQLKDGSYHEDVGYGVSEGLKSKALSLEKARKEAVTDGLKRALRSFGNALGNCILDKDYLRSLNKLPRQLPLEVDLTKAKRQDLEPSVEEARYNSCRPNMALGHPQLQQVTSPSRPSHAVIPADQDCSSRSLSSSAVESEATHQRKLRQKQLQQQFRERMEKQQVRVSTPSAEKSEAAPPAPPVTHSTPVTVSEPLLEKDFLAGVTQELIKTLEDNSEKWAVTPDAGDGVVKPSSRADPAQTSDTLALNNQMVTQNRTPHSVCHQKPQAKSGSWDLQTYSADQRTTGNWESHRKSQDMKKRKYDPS

[4] = HEK-293T cell viability reduction – luminescence, B-cell screen hits, cytotoxicity control for BCR NF-kB inhibitor project, dose response (AID 489021); type: functional, cell-based;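 note: HEK-293T cells carrying an NF-kB luciferase reporter; cells exposed to compound for about 14 hours before viability readout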
[5] = biological target: Glyceraldehyde-3-phosphate dehydrogenase (Homo sapiens, UniProt P04406)
Chain of Glyceraldehyde-3-phosphate dehydrogenase (P04406 whole entry): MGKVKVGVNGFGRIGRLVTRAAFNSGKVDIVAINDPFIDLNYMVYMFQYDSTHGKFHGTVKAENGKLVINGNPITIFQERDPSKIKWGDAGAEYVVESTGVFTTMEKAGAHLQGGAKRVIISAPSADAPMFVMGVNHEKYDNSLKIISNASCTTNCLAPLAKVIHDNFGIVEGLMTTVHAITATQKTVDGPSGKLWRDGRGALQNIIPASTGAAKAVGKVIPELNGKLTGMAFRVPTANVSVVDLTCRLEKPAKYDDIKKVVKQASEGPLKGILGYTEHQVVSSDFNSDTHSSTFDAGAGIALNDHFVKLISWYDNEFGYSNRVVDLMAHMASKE

[6] = biological target: T3, Methionyl-tRNA synthetase, putative (Trypanosoma brucei brucei, UniProt Q38C91); type: functional, Trypanosoma brucei brucei strain 927/4 GUTat10.1
T3 sequence (Q38C91 whole entry): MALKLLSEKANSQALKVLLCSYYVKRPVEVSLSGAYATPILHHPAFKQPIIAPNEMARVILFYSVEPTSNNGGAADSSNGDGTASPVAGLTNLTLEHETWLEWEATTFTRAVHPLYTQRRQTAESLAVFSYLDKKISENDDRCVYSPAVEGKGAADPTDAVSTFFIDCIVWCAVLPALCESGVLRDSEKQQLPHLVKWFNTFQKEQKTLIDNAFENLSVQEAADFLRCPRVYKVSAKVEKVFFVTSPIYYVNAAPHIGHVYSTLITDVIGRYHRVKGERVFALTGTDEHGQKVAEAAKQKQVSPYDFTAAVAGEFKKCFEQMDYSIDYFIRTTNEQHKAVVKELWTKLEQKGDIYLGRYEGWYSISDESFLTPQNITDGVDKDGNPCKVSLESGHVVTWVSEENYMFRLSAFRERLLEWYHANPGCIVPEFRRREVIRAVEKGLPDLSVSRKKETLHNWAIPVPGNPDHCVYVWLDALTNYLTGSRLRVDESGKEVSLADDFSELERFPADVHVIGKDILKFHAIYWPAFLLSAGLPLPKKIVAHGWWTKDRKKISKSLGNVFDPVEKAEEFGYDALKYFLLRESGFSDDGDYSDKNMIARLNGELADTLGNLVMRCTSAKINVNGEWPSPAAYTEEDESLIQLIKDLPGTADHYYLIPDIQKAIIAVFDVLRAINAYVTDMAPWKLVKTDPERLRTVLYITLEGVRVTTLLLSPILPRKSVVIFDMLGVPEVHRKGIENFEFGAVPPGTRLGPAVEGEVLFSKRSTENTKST

[7] = biological target: T3, Methionyl-tRNA synthetase, putative; type: functional, Trypanosoma brucei brucei strain 927/4 GUTat10.1; remark: listed apart in the source
[8] = Counterscreen for inhibitors of Trypanosoma brucei methionyl tRNA synthetase (MetRS): Luminescence-based cell-based high throughput dose response assay to identify compounds that are cytotoxic to Jurkat human T lymphocyte cells.; type: functional
[9] = biological target: Luciferin 4-monooxygenase (Photinus pyralis, UniProt P08659); test: inhibition of purified Photinus pyralis luciferase – biochemical, luminescence, dose response (AID 1891)
Chain of Luciferin 4-monooxygenase (P08659 whole entry): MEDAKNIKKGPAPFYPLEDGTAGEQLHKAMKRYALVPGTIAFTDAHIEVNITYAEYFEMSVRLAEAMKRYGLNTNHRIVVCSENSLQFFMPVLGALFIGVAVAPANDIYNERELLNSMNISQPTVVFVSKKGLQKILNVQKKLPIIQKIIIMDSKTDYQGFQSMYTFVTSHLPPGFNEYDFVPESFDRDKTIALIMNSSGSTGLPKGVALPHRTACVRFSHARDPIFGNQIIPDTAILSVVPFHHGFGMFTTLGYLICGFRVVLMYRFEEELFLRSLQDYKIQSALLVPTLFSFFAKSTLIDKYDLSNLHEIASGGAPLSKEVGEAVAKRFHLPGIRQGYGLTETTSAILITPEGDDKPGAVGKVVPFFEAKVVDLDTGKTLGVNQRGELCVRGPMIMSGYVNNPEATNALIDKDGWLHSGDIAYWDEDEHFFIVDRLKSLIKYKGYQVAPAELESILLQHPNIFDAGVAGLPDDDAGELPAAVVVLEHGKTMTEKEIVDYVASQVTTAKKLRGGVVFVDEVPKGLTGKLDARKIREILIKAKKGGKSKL

[10] = Luminescence Cell-Based Dose Confirmation HTS to Identify Inhibitors of Platelet Dense Granule Release. [Related pubchem assays: 1663 (Primary HTS), 1678 (Summary of Project)]; type: functional
[11] = biological target: FAD-linked sulfhydryl oxidase ALR (Homo sapiens, UniProt P55789); test: ALR-catalysed DTT oxidation blockers – biochemical, H2O2 detection, luminescence, cherry-pick, dose response (AID 493248)
Chain of FAD-linked sulfhydryl oxidase ALR (P55789 whole entry): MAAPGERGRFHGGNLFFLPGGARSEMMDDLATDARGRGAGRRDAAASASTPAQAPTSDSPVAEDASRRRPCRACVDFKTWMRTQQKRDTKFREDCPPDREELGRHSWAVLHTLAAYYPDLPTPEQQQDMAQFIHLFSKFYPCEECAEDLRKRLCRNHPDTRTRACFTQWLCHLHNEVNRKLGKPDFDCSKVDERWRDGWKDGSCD

[12] = Luminescence Cell-Based Dose Response HTS to Identify Activators of Luciferase Translation or Activity in H4 […] Cells. [Related pubchem assays: 1829 (Project Summary), 1814 (Primary HTS)]; type: functional
H4 = test: Luminescence Cell-Based Dose Response HTS to Identify Activators of 5'UTR Stem-Loop Driven Prion Protein mRNA Translation in H4 Neuroglioblastoma Cells. [Related pubchem assays: 1829 (Project Summary), 1814 (Primary HTS)]; type: functional; settings: Homo sapiens
Caspase-3 = biological target: T4, Caspase-3 (Homo sapiens, UniProt P42574); type: functional;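 note: Dose-response selectivity test against caspase-3 for candidate inhibitors of sentrin-specific proteases (SENPs)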
T4 sequence (P42574 whole entry): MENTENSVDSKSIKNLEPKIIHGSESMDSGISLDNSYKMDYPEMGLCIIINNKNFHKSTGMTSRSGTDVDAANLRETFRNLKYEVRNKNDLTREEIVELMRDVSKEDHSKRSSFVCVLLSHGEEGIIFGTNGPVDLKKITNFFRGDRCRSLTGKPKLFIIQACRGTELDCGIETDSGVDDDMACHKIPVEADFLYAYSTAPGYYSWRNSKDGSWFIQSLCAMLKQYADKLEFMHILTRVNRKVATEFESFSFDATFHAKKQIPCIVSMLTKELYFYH

[13] = biological target: T5, Sentrin-specific protease 7 (Homo sapiens, UniProt Q9BQF6); type: functional;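 note: Luminescence-based dose-response confirmation of ultra-high-throughput screening hits, measuring inhibition of SENP7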
T5 sequence (Q9BQF6 whole entry): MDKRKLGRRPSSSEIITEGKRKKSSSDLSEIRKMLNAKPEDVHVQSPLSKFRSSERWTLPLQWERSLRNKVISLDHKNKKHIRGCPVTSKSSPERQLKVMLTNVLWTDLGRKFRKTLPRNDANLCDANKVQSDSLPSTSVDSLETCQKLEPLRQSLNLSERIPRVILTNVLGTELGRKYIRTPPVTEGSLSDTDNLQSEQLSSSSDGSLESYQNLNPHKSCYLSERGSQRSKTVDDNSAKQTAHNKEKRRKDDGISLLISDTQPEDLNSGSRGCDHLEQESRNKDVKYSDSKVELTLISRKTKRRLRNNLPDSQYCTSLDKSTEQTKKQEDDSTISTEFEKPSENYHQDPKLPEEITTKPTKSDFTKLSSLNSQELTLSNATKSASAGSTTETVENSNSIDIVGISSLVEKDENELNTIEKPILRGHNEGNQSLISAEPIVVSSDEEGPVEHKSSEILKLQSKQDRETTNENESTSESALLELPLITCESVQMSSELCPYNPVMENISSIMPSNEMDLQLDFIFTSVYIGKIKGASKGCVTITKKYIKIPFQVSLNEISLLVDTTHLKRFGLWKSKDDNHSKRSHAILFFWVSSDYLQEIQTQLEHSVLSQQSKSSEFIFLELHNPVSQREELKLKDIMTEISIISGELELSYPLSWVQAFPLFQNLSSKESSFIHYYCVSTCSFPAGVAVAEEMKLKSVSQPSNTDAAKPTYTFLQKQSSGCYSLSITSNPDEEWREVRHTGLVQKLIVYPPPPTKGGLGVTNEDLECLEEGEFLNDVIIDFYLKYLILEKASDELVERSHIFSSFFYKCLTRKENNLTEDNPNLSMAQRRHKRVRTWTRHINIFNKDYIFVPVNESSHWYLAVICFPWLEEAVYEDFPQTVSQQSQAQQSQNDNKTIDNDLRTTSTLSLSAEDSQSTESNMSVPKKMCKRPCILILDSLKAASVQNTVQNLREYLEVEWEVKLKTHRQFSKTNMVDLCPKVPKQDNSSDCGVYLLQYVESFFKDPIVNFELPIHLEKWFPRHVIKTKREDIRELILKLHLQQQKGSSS

[14] = biological target: T6, Sentrin-specific protease 6 (Homo sapiens, UniProt Q9GZR1); type: functional;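 note: Luminescence-based dose-response confirmatory assay of SENP6 inhibition, following up an ultra-high-throughput screen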
T6 sequence (Q9GZR1 whole entry): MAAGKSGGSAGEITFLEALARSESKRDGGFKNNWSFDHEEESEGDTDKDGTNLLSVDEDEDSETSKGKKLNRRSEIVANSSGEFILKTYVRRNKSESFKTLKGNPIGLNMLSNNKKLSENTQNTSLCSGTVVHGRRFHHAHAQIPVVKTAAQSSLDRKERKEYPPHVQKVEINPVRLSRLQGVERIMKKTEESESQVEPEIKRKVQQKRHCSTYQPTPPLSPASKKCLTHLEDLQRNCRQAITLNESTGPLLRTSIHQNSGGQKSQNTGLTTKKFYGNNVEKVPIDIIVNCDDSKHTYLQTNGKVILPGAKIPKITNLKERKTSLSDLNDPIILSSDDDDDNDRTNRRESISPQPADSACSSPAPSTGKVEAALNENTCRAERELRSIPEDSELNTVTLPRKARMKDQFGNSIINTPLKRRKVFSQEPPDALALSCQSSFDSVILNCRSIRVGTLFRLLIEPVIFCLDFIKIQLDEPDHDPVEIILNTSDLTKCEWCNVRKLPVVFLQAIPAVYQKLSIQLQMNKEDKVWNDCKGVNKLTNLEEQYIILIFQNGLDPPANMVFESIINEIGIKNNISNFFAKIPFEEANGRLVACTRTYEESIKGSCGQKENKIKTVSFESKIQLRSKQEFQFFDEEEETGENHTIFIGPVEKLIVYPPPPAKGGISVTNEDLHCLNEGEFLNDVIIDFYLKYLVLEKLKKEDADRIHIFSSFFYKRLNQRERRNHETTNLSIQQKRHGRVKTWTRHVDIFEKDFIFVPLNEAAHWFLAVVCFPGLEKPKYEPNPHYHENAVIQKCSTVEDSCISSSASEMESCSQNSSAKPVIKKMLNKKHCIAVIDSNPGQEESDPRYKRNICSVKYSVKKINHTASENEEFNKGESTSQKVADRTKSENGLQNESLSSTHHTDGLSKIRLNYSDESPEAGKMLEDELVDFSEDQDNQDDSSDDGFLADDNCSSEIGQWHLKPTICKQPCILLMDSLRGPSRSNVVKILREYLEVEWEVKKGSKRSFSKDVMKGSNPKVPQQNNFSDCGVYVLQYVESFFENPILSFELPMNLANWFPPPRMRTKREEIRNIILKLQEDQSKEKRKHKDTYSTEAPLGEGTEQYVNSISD

[15] = biological target: T7, Sentrin-specific protease 8 (Homo sapiens, UniProt Q96LD8); type: functional;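 note: luminescence read-out of SENP8 inhibition, dose-response confirmation following an ultra-high-throughput screen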
T7 sequence (Q96LD8 whole entry): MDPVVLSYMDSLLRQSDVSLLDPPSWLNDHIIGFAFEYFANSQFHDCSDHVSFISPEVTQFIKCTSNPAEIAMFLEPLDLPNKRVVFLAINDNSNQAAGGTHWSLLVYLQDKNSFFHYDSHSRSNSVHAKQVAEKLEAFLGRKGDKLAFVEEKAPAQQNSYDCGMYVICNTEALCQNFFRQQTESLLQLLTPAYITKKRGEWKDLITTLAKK

For `S=C(NCc1cccs1)NCC1CCCO1` (stereo not given), the IC50 (Prothrombin) was > 50 µM (not active).

With `COc1ccc(NC(=O)Nc2ccc3c(c2)C(=O)N([C@@H](C)CO)C[C@@H](C)[C@@H](CN(C)Cc2ccc(Cl)c(Cl)c2)OCCCC[C@@H](C)O3)cc1` the AC50 (Paired box protein Pax-8) was 14.1 µM (active) and the AC50 [1] was 65.4 µM (active).

In the case of `OCCN1CCN(CC/C=C2/c3ccccc3Sc3ccc(C(F)(F)F)cc32)CC1`, the IC50 [2] is reported as > 20 µM (inactive) and the AC50 [3] is reported as 21.2 µM (active).

In the case of `C=CCOC(=O)COc1cc(C)cc2oc(=O)c3c(c12)CCC3`, the IC50 [4] is reported as > 80 µM (inactive).

With `O=C1C2C3C=CC(C3)C2C(=O)N1c1n[nH]c(CCc2ccccc2)n1` (stereo not given) the IC50 [5] was > 100 µM (not active).

For `NNC(=O)COc1ccc(-c2nccc(-c3ccc(F)cc3)n2)cc1`, the IC50 [4] was > 80 µM (inactive).

For `CCOc1ccc(C(=O)NCC(=O)OC(C)C(=O)NCc2ccco2)cc1OCC` (stereo not given), the IC50 (Prothrombin) was > 50 µM (not active).

With `CC(C)C[C@@H]1CN=C(N)N1C[C@@H]1CCCN1C[C@@H](C(C)C)N1C[C@@H](Cc2ccccc2)N(CCc2ccc(Cl)c(Cl)c2)C1=N` the AC50 [3] was 16.7 µM (active).

With `O=C1C(Cl)=C(N2CCOCC2)C(=O)N1c1ccnc(Cl)c1` the IC50 [5] was > 50 µM (inconclusive).

For `CC(C)(Oc1ccc(Cl)cc1)C(=O)OCc1nc2ccsc2c(=O)[nH]1`, the IC50 [6] was 21.6 µM (inactive) and the IC50 [7] was 9.89 µM (active).

In the case of `CC(C)(Oc1ccc(Cl)cc1)C(=O)OCc1nc(O)c2sccc2n1`, the IC50 [8] is reported as 83.3 µM (inactive).

For `C/C(=C1/SC(=S)N(CCC(=O)O)C1=O)c1ccc(O)cc1`, the EC50 [9] was > 112 µM (not active), the EC50 [10] was > 112 µM (not active) and the AC50 [11] was 4.14 µM (active). For the same compound, the IC50 [6] was 16.6 µM (inactive), the IC50 [8] was 83.3 µM (inactive) and the IC50 [7] was 9.47 µM (active).

For `CCOC(=O)c1sc(Nc2ccccc2Cl)nc1C`, the EC50 [12] was 1.18 µM (active), the EC50 (H4) was 43.9 µM (active) and the IC50 (Caspase-3) was 26.6 µM (active). The IC50 [13] was 8.78 µM (active), the IC50 [14] was 19.8 µM (active) and the IC50 [15] was 20.3 µM (active).

With `O=C(NCc1cc(Cl)cc(Cl)c1)c1ccc2[nH]c([C@H]3C[C@H](O)[C@@H](CO)O3)nc2c1` the IC50 [6] was 23.8 µM (inactive), the IC50 [8] was 83.3 µM (inactive) and the IC50 [7] was 13.5 µM (inactive).

In the case of `COc1ccc(CNc2nc(-c3cccnc3)nn2C(=O)c2ccco2)cc1`, the IC50 (Prothrombin) is reported as 1.19 µM (active).
